Measured values reported in PMC5296733, “Functional Coupling of Human Microphysiology Systems: Intestine, Liver, Kidney Proximal Tubule, Blood-Brain Barrier and Skeletal Muscle” (Scientific Reports, 2017).
Where two headings read alike, the source gives them in different places. Blank lines part the entries; values can stand above or below the compound they belong to.

Experiments:
[1] = test system: differentiated human jejunal enteroids
[2] = test system: static SQL-SAL liver model; assay: Static 4-cell SQL-SAL liver in 96-well microplates (vitamin D3); type: in vitro ADME, human; conditions: for Concentration in liver efflux media: vitamin D3 experiment, 96-well 4-cell liver module, 72 h, media pooled
Description: Media without dexamethasone was used to avoid downstream toxicity to the human neurons in the NVU. […]
The intestinal/liver-conditioned media efflux was collected and samples were tested by MS or transported on dry ice for testing in the kidney module, or the BBB/NVU module.
Dexamethasone, normally used to maintain hepatocyte differentiation, was removed from the liver media for functional coupling to avoid downstream toxicity to the human neurons in the NVU. […] Briefly, cryopreserved human hepatocytes were seeded into collagen type 1 coated 96-well plates at 26,000 hepatocytes/well and allowed to attach overnight in hepatocyte plating media (HPM). The HPM was decanted and 1.25x10^5 Ea.Hy.926 endothelial cells and 8 X10^4 differentiated U937 immune cells in MEM media supplemented with 10% FBS and L-Glutamine were added. After 2 h the media was decanted and 40 µL of a slurry of 1.5 mg/mL gelling collagen type 1 in Williams E media with 4 X 10^4 LX-2 stellate cells was added.

[3] = test system: proximal tubule kidney (PTK) module; assay: Proximal tubule kidney (PTK) module, vitamin D3 metabolites
[4] = test system: differentiated human jejunal enteroids; assay: Intestine module: jejunal enteroid Transwell transport and metabolism; conditions: for Concentration in micelle preparation: synthetic micelles containing 100 μM vitamin D3
[5] = test system: blood-brain barrier/neurovascular unit (BBB/NVU); assay: BBB/NVU module penetration; conditions: for Penetration through blood-brain barrier (MPS): BBB/NVU module, TMAO 12 h, others 24 h
[6] = test system: Kidney MPS Organ Module (PTK); assay: Vitamin D binding protein as carrier in PTK module; conditions: 1 μM 25-(OH) VD3
[7] = cited from earlier work
Liver MPS Organ Module = assay: Effect of vitamin D binding protein on recovery and metabolism in liver module; type: in vitro ADME, human; conditions: for 25-(OH) VD3 formation / VD3 Recovered in Efflux Media: 7 μM VitD3
Description: Media without dexamethasone was used to avoid downstream toxicity to the human neurons in the NVU. […] Media samples were collected after 24 h and 48 h incubations.
Samples from the treatment conditions were collected after 24-h and 48-h incubations and stored in amber glass vials at -80°C for LC-MS/MS analysis.

[8] = test system: vascularized proximal tubule kidney (VPTK) module; assay: Vascularized proximal tubule kidney (VPTK) module secretion; conditions: for Excreted into proximal tubule lumen, MPS: Table 2, MPS model
[9] = test system: blood-brain barrier/neurovascular unit (BBB/NVU); conditions: human, 24 h
[10] = 0-48 h, 50% liver-conditioned, N=2
[11] = 100 μM vitamin D3 micelles apical, 24 h
[12] = initial four-organ functional study, no DBP
[13] = 3 mM TMA added to apical compartment, 0-24 h
[14] = kidney perfused at 3.75 X 10^5 ng/ml TMAO spiked media, 0-6 h
[15] = kidney perfused with liver conditioned media, 0-6 h
[16] = TMA experiment, liver-conditioned media, Brain (12 h)
[17] = liver-conditioned media, 6 h perfusion
[18] = terfenadine experiment, liver-conditioned media, 0-6 h

- Concentration in micelle preparation [1]: < LOD^2 < LOD < LOD
- Concentration in liver efflux media [2]: 0.0064 ng/mL
SMILES: C=C1/C(=C\C=C2/CCC[C@]3(C)[C@@H]([C@H](C)CCCC(C)(C)O)CC[C@@H]23)C[C@@H](O)C[C@@H]1O [1α,25-(OH)2 Vitamin D3, 1α,25-(OH)2 vitamin D3]

SMILES: C=C1CC[C@H](O)[C@H](O)/C1=C/C=C1\CCC[C@]2(C)[C@@H]([C@H](C)CCCC(C)(C)O)CC[C@@H]12 [4β,25-(OH)2 Vitamin D3, 4β,25-(OH)2 vitamin D3]
- Concentration in kidney efflux media [3, 10]: 0.0033 ng/mL
- Concentration in kidney efflux media ([3]; 0-48 h, 80% liver-conditioned): 0.0064 ng/mL
- Concentration in kidney efflux media ([3]; 0-120 h, 50% liver-conditioned): 0.0076 ng/mL
- Concentration in kidney efflux media ([3]; 0-120 h, 80% liver-conditioned): 0.014 ng/mL
- Concentration in intestine apical media [4, 11]: < LOD^2 < LOD < LOD
- Concentration in intestine basolateral media [4, 11]: < LOD^2 < LOD < LOD
- Concentration in micelle preparation [4]: < LOD^2 < LOD < LOD
- Concentration in liver efflux media [2]: 0.047 ng/mL
- Concentration in brain neuronal efflux ([5]; vitamin D3 experiment, 24 h): LOD
- Concentration in brain vascular efflux ([5]; vitamin D3 experiment, 24 h): 0.0081 ± 0.0029 ng/mL

SMILES: C=C1CCC(O)C/C1=C\C=C1\CCCC2(C)C1CCC2C(C)CCC(O)C(C)(C)O (stereo not shown) [24,25-(OH)2 Vitamin D3, 24,25-(OH)2 vitamin D3]
- Metabolite formation in kidney efflux ([6]; 48-72 h, media + 2% FBS): 6.80 ± 1.6 pmol/day/ 10^6 Proximal Tubule Cells
- Concentration in kidney efflux media [3, 10]: 0.082 ng/mL
- Concentration in kidney efflux media ([3]; 0-48 h, 80% liver-conditioned): 0.12 ng/mL
- Concentration in kidney efflux media ([3]; 0-120 h, 50% liver-conditioned): 0.11 ng/mL
- Concentration in kidney efflux media ([3]; 0-120 h, 80% liver-conditioned): 0.16 ng/mL
- Concentration in intestine apical media [4, 11]: < LOD^2 < LOD < LOD
- Concentration in intestine basolateral media [4, 11]: < LOD^2 < LOD < LOD
- Concentration in micelle preparation [4]: < LOD^2 < LOD < LOD
- Concentration in liver efflux media [2]: 0.25 ng/mL
- Concentration in brain neuronal efflux ([5]; vitamin D3 experiment, 24 h): LOQ
- Concentration in brain vascular efflux ([5]; vitamin D3 experiment, 24 h): 0.079 ± 0.015 ng/mL

SMILES: C=C1CC[C@H](O)C/C1=C/C=C1\CCC[C@]2(C)[C@@H]([C@H](C)CCCC(C)(C)O)CC[C@@H]12 [25-(OH) Vitamin D3, 25-(OH) vitamin D3]
- 25-(OH) VD3 recovery ([6]; 48-72 h, Renal Tubular Epithelial Media + 3 μM Vitamin D Binding Protein): 100%
- 25-(OH) VD3 recovery ([6]; 48-72 h, Renal Tubular Epithelial Media + 2% FBS): 8%
- Recovered from syringes and tubing leading up to MPS module ([6]; media + 2% FBS): 16%
- Concentration in kidney efflux media [3, 10]: 0.12 ng/mL
- Concentration in kidney efflux media ([3]; 0-48 h, 80% liver-conditioned): 0.23 ng/mL
- Concentration in kidney efflux media ([3]; 0-120 h, 50% liver-conditioned): 0.29 ng/mL
- Concentration in kidney efflux media ([3]; 0-120 h, 80% liver-conditioned): 0.48 ng/mL
- 25-(OH) vitamin D3 perfused into the kidney that was unrecoverable [3, 12]: 90%
- Concentration in intestine apical media [4, 11]: < LOQ^1 < LOQ < LOQ
- Concentration in intestine basolateral media [4, 11]: < LOQ^1 < LOQ < LOQ
- Concentration in micelle preparation [4]: < LOQ^1 < LOQ < LOQ
- Kidney metabolism, Clinical ([7]; Table 2, clinical): 25(OH)VD3 → 1α,25(OH)2VD3 & 24,25(OH)2VD3
- Penetration through blood-brain barrier, Clinical ([7]; Table 2, clinical): VD3 & 25(OH)VD3 Penetration
- Plasma 25-(OH) vitamin D3 transported by DBP ([7]; in humans): 85–90%
- 25-(OH) VD3 formation as % of in vivo rate (Liver MPS Organ Module; 0-24 h, 3 μM DBP): 4.9 % of in vivo rate
- 25-(OH) VD3 formation as % of in vivo rate (Liver MPS Organ Module; 0-24 h, no DBP): 2.7 % of in vivo rate
- 25-(OH) VD3 formation (Liver MPS Organ Module; 0-24 h, 3 μM DBP): 12.63 pmol/day/10^6 Hepatocytes
- 25-(OH) VD3 formation (Liver MPS Organ Module; 0-24 h, no DBP): 7.00 pmol/day/10^6 Hepatocytes
- Improvement of formation and recovery of the metabolite with DBP (Liver MPS Organ Module; DBP:vitamin D3 3:1 versus no DBP): 2–3 fold
- Concentration in liver efflux media [2]: 3.0 ng/mL
- Penetration through blood-brain barrier (MPS) ([5]; liver-conditioned media): approximately 6%
- Penetration through blood-brain barrier (MPS) ([5]; liver-conditioned media, listed as 25(OH) VD3): 6%
- Concentration in brain neuronal efflux ([5]; vitamin D3 experiment, 24 h): 0.051 ± 0.022 ng/mL
- Concentration in brain vascular efflux ([5]; vitamin D3 experiment, 24 h): 0.82 ± 0.15 ng/mL

- Excreted into proximal tubule lumen, MPS [8]: ~ 1% Fex Excreted
- Share of total fexofenadine found in lumen media ([8]; liver-conditioned media, 6 h): ~1%
SMILES: CC(C)(C(=O)O)c1ccc(C(O)CCCN2CCC(C(O)(c3ccccc3)c3ccccc3)CC2)cc1 (stereo not shown) [Fexofenadine, fexofenadine, reference compound]
- Excreted into proximal tubule lumen, Clinical ([7]; Table 2, clinical): 11% Fex Excreted

SMILES: CN(C)C [TMA, trimethylamine]
- Share of starting TMA concentration found in basolateral media ([4]; 316 μg/mL (3 mM) apical, 24 h): 6%
- Concentration in intestine basolateral media [4, 13]: 19100 ± 2179 ng/mL
- Concentration in intestine basolateral media ([4]; TMA hydrochloride 316 μg/mL (3 mM) apical, 24 h): 19100 ± 2200 ng/mL
- Intestine fate, MPS ([4]; Table 2, MPS model): Uptake & Transport
- Concentration in kidney plasma efflux [8, 14]: < LOQ < LOQ
- Concentration in kidney proximal tubule lumen [8, 14]: < LOQ < LOQ
- Concentration in kidney plasma efflux [8, 15]: < LOQ <LOQ
- Concentration in kidney proximal tubule lumen [8, 15]: < LOQ <LOQ
- Intestine fate, Clinical ([7]; Table 2, clinical): Uptake & Transport
- Liver metabolism, Clinical ([7]; Table 2, clinical): TMA → TMAO
- TMA Clearance (liver), Clinical ([7]; Table 2, clinical): < 5%
- Concentration in brain neuronal efflux [5, 16]: < LOQ < LOQ
- Concentration in brain vascular efflux [5, 16]: < LOQ < LOQ

SMILES: C[N+](C)(C)[O-] [TMAO, trimethylamine-N-oxide]
- Concentration in intestine apical media [4, 13]: < LOQ^1 < LOQ
- Concentration in intestine basolateral media [4, 13]: < LOQ^1 < LOQ
- Excreted into proximal tubule lumen, MPS [8]: ~46% TMAO Excreted
- TMAO secreted into the kidney lumen ([8]; independent experiment, media with 375 μg/mL TMAO): 46%
- Concentration in kidney plasma efflux [8, 15]: 21720 ± 6967 ng/mL
- Concentration in kidney proximal tubule lumen [8, 15]: 450 ± 290 ng/mL
- Share of TMAO found in lumenal media [8, 17]: 5%
- Share of TMAO found in vascular media [8, 17]: 95%
- Excreted into proximal tubule lumen, Clinical ([7]; Table 2, clinical): > 95% TMAO Excreted
- Concentration in brain neuronal efflux [5, 16]: 1800 ± 100 ng/mL
- Concentration in brain vascular efflux [5, 16]: 4600 ± 200 ng/mL
- Concentration in BBB/NVU neuronal efflux ([5]; TMA experiment, 12 h perfusion): 1800 ± 100 ng/mL
- Concentration in BBB/NVU vascular efflux ([5]; TMA experiment, 12 h perfusion): 4600 ± 200 ng/mL

- Concentration in kidney plasma (vascular) efflux [8, 18]: < LOQ^2 < LOQ
- Concentration in kidney proximal tubule lumen [8, 18]: < LOQ^2 < LOQ
SMILES: CC(C)(C)c1ccc(C(O)CCCN2CCC(C(O)(c3ccccc3)c3ccccc3)CC2)cc1 (stereo not shown) [Terfenadine, terfenadine, reference compound]
- Bio T (liver), Clinical ([7]; Table 2, clinical): < 1%
- Intestine fate, Clinical ([7]; Table 2, clinical): Ter → Fex

SMILES: C=C1CC[C@H](O)C/C1=C/C=C1\CCC[C@]2(C)[C@@H]([C@H](C)CCCC(C)C)CC[C@@H]12 [Vitamin D3, vitamin D3, reference compound]
- Concentration in brain neuronal efflux [9]: 0.19 ± 0.23 ng/mL
- Concentration in brain vascular efflux [9]: 45 ± 6.2 ng/mL
- Concentration in kidney efflux media [3, 10]: 1.5 ng/mL
- Concentration in kidney efflux media ([3]; 0-48 h, 80% liver-conditioned): 4.3 ng/mL
- Concentration in kidney efflux media ([3]; 0-120 h, 50% liver-conditioned): 1.0 ng/mL
- Concentration in kidney efflux media ([3]; 0-120 h, 80% liver-conditioned): 1.4 ng/mL
- Share of initial vitamin D3 concentration transported to basolateral media ([4]; 100 μM vitamin D3 in micelles apical, 24 h): 23%
- Concentration in micelle preparation [4]: 36000 ± 4200 ng/mL
- Penetration through blood-brain barrier, Clinical ([7]; Table 2, clinical): VD3 & 25(OH)VD3 Penetration
- Concentration in intestine apical media ([1]; human, 24 h, 100 µM): 20000 ± 2200 ng/mL
- Concentration in intestine basolateral media ([1]; human, 24 h, 100 µM): 8300 ± 410 ng/mL
- VD3 Recovered in Efflux Media (Liver MPS Organ Module; 0-24 h, Williams E Media + 1.25 mg/ml BSA (no DBP)): 20%
- VD3 Recovered in Efflux Media (Liver MPS Organ Module; 0-24 h, Williams E Media + 1.25 mg/ml BSA (no DBP), listed as VD3): 20% recovery
- VD3 Recovered in Efflux Media (Liver MPS Organ Module; 0-24 h, Williams E Media, 1.25 mg/ml BSA, 3 μM Vitamin D Binding Protein, listed as VD3): 57% recovery
- VD3 Recovered in Efflux Media (Liver MPS Organ Module; 24-48 h, Williams E Media, 1.25 mg/ml BSA, 3 μM Vitamin D Binding Protein): ~100%
- VD3 Recovered in Efflux Media (Liver MPS Organ Module; 24-48 h, Williams E Media, 1.25 mg/ml BSA, 3 μM Vitamin D Binding Protein, listed as VD3): 100% recovery
- Liver metabolism, MPS ([2]; Table 2, MPS model, vitamin D3): VD3 → 25(OH)VD3 & 24,25(OH)2VD3
- Vitamin D3 perfused into the liver that was unrecoverable [2, 12]: 80%
- Concentration in liver efflux media [2]: 1100 (pooled)^3 ng/ml
- Penetration through blood-brain barrier (MPS) ([5]; liver-conditioned media): 0.4%
